Source: patent publication US10954253B2, “1,2-dihydro-3H-pyrazolo[3,4-d]pyrimidin-3-one derivative as Wee1 inhibitor” (SHIJIAZHUANG SAGACITY NEW DRUG DEVELOPMENT CO., LTD., priority 2017, dated 2021)

Target: Wee1 (Homo sapiens (Human), UniProt P30291)
Experiment: In vitro enzymatic inhibitory activity (33P-ATP filter-binding kinase assay, MBP substrate)
Type: biochemical
Details: Wee-1 150 nM, MBP 20 μM
Procedure: The compounds of the present invention for experimental use were all self-prepared, and their chemical names and structural formulas are shown in the preparation embodiments of the respective compounds. The experimental tests were carried out in Reaction Biology Corporation, USA, and the experimental results were provided by the company. Basic reaction buffer: 20 mM hydroxyethylpiperazine ethanesulfuric acid (pH 7.5), 10 mM magnesium chloride, 1 mM EGTA, 0.02% Brij35, 0.02 mg/mL bovine serum albumin, 0.1 mM Na3VO4, 2 mM DTT, 1% DMSO Enzyme: Wee-1 concentration is 150 nM Matrix: MBP concentration is 20 μM The tested compound was formulated into a 5 mM solution with 100% DMSO, and a 10 points 3-fold gradient dilution was performed with DMSO through an automated pipetting station epMotion 5070. 1. Fresh matrix configuration reaction buffer was prepared; 2. The Wee-1 was added into the matrix solution and shaked gently; 3. DMSO solution of the compound were added into the kinase reaction mixture using an acoustic technique (Echo 550; nanoliter range) and incubated for 20 minutes at room temperature; 4. ^33P-ATP (specific activity, 10 μCi/μL) was added into the reaction mixture to stimulate the reaction; 5. Incubated for 2 hours at room temperature; 6. Kinase activity was detected by filter-binding method.

Wee1, sequence (P30291 whole entry): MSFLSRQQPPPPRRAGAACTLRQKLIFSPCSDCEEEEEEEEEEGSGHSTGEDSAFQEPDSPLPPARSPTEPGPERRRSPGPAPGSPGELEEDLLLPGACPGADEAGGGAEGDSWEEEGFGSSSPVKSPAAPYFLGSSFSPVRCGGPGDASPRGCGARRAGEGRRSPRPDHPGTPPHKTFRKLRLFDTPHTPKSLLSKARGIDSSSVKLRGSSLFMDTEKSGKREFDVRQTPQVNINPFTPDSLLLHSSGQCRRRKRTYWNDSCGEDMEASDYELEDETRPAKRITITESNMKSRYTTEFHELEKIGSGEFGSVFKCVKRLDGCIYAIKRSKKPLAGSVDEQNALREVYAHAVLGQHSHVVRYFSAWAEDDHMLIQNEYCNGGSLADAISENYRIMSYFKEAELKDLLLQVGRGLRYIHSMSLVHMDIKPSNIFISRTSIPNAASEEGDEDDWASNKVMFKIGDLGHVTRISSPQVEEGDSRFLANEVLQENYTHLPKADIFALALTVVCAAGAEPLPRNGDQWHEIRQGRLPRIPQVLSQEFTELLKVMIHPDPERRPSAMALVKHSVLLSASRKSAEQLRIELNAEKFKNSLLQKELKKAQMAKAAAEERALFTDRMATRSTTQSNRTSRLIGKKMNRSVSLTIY

`C=CCn1c(=O)c2cnc(Nc3ccc(N4CCC5(CCN(CC#N)CC5)CC4)cc3)nc2n1-c1cccc(C(C)(C)O)n1` [Compound 63, 2-(9-(4((2-allyl-1(6-(2-hydroxypropan-2-yl)pyridin-2-yl)-3-oxo-2,3-dihydro-1H-pyrazolo[3,4-d]pyrimidin-6-yl)amino)phenyl)-3,9-diazaspiro[5.5]undecan-3-yl)acetonitrile] was tested. Which IC50 did it give?
The IC50 was 8.3 nM.

How did the IC50 turn out when `C=CCn1c(=O)c2cnc(Nc3ccc(N4CCC5(CCN(CCOC)CC5)CC4)cc3)nc2n1-c1cccc(C(C)(C)O)n1` [Compound 64, 2-allyl-1-(6-(2-hydroxypropan-2-yl)pyridin-2-yl)-6-((4-(9-(2-methoxylethyl)-3,9-diazaspiro[5.5]undecan-3-yl)phenyl)amino)-1H-pyrazolo[3,4-d]pyrimidin-3(2H)-one] was run?
Its IC50 is 9.9 nM.

Which IC50 does the source give for `C=CCn1c(=O)c2cnc(Nc3ccc(N4CCC5(CCN(C)CC5)CC4)cc3)nc2n1-c1cccc(C2(F)CC(F)(F)C2)n1` [Compound 65, 2-allyl-6((4-(9-methyl-3,9-diazaspiro[5.5]undecan-3-yl)phenyl)amino)-1-(6-(1,3,3-trifluorocyclobutyl)pyridin-2-yl)-1H-pyrazolo[3,4-d]pyrimidin-3(2H)-one] here?
Its IC50 is 41.6 nM.

Which IC50 does the source give for `C=CCn1c(=O)c2cnc(Nc3ccc(N4CCC5(CCN(C)CC5)CC4)cc3)nc2n1-c1cccc(C2(O)CC(F)(F)C2)n1` [Compound 66, 2-allyl-1-(6-(3,3-difluoro-1-hydroxycyclobutyl)pyridin-2-yl)-6-((4-(9-methyl-3,9-diazaspiro[5.5]undecan-3-yl)phenyl)amino)-1H-pyrazolo[3,4-d]pyrimidin-3(2H)-one] here?
The IC50 was 15 nM.

With `C=CCn1c(=O)c2cnc(Nc3ccc(N4CCC5(CCN(C)CC5)CC4)cc3)nc2n1-c1cccc(C(C)C)n1` [Compound 67] as the compound, how does the IC50 read?
The IC50 was 12.8 nM.

For `C=CCn1c(=O)c2cnc(Nc3ccc(N4CCC5(CCN(C)CC5)CC4)cc3)nc2n1-c1cccc(C2(C)CC2)n1` [Compound 68, 2-allyl-6-((4-(9-methyl-3,9-diazaspiro[5.5]undecan-3-yl)phenyl)amino)-1-(6-(1-methylcyclopropyl)pyridin-2-yl)-1H-pyrazolo[3,4-d]pyrimidin-3(2H)-one], which IC50 is on record?
The IC50 was 30.4 nM.

`C=CCn1c(=O)c2cnc(Nc3ccc(N4CCC5(CC4)CCN(C4COC4)CC5)cc3)nc2n1-c1cccc(C(C)(C)O)n1` [Compound 69] was tested. Which IC50 did it give?
Its IC50 is 5.7 nM.

For `C=CCn1c(=O)c2cnc(Nc3ccc(N4CCC5(CCN(C(=O)OC)CC5)CC4)cc3)nc2n1-c1cccc(C(=O)N(C)C)n1` [Compound 70, methyl-9-(4-((2-allyl-1-(6-(dimethylaminoformyl)pyridin-2-yl)-3-oxo-2,3-dihydro-1H-pyrazolo[3,4-d]pyrimidin-6-yl)amino)phenyl)-3,9-diazaspiro[5.5]undecan-3-carboxylate], which IC50 is on record?
Its IC50 is 20.3 nM.

How did the IC50 turn out when `C=CCn1c(=O)c2cnc(Nc3ccc(N4CCC5(CCN(C(=O)OC)CC5)CC4)cc3)nc2n1-c1cccc(C2(O)COC2)n1` [Compound 71, methyl-9-(4-((2-allyl-1-(6-(3-hydroxyoxetan-3-yl)pyridin-2-yl)-3-oxo-2,3-dihydro-1H-pyrazolo[3,4-d]pyrimidin-6-yl)amino)phenyl)-3,9-diazaspiro[5.5]undecan-3-carboxylate] was run?
Its IC50 is 15.7 nM.

Which IC50 does the source give for `C=CCn1c(=O)c2cnc(Nc3ccc(N4CCC5(CCN(C)CC5)CC4)cc3)nc2n1-c1cccc(N2CC(F)(F)C2)n1` [Compound 72] here?
Its IC50 is 8.2 nM.

Which IC50 does the source give for `C=CCn1c(=O)c2cnc(Nc3ccc(N4CCC5(CCN(C)CC5)CC4)cc3)nc2n1-c1cccc(C2(OC)COC2)n1` [Compound 73, 2-allyl-1-(6-(3-methoxyoxetan-3-yl)pyridin-2-yl)-6-((4-(9-methyl-3,9-diazaspiro[5.5]undecan-3-yl)phenyl)amino)-1H-pyrazolo[3,4-d]pyrimidin-3(2H)-one] here?
The IC50 was 5.3 nM.

How did the IC50 turn out when `C=CCn1c(=O)c2cnc(Nc3ccc(N4CCC5(CCN(C)CC5)CC4)cc3)nc2n1-c1cccc([C@@](C)(O)C(F)(F)F)n1` [Compound 74, (R)-2-allyl-6-((4-(9-methyl-3,9-diazaspiro[5.5]undecan-3-yl)phenyl)amino)-1-(6-(1,1,1-trifluoro-2-hydroxypropan-2-yl)pyridin-2-yl)-1H-pyrazolo[3,4-d]pyrimidin-3(2H)-one] was run?
Its IC50 is 13 nM.

With `C=CCn1c(=O)c2cnc(Nc3ccc(N4CCC5(CCN(C)CC5)CC4)cc3)nc2n1-c1cccc([C@](C)(O)C(F)(F)F)n1` [Compound 75, (S)-2-allyl-6-((4-(9-methyl-3,9-diazaspiro[5.5]undecan-3-yl)phenyl)amino)-1-(6-(1,1,1-trifluoro-2-hydroxypropan-2-yl)pyridin-2-yl)-1H-pyrazolo[3,4-d]pyrimidin-3(2H)-one] as the compound, how does the IC50 read?
Its IC50 is 17 nM.

Which IC50 does the source give for `C=CCn1c(=O)c2cnc(Nc3ccc(N4CCC5(CCNCC5)CC4)cc3)nc2n1-c1cccc(C(C)(C)O)n1` [Compound 76, 6-((4-(-3,9-diazaspiro[5.5]undecan-3-yl)phenyl)amino)-2-allyl-1-(6-(2-hydroxypropan-2-yl)pyridin-2-yl)-1H-pyrazolo[3,4-d]pyrimidin-3(2H)-one] here?
Its IC50 is 13 nM.

Which IC50 does the source give for `C=CCn1c(=O)c2cnc(Nc3ccc(N4CCC5(CCNCC5)CC4)cc3)nc2n1-c1cccc(C2(F)COC2)n1` [Compound 77, 6-((4-(-3,9-diazaspiro[5.5]undecan-3-yl)phenyl)amino)-2-allyl-1-(6-(3-fluoro-oxetan-3-yl)pyridin-2-yl)-1H-pyrazolo[3,4-d]pyrimidin-3(2H)-one] here?
The IC50 was 9 nM.

With `C=CCn1c(=O)c2cnc(Nc3ccc(N4CCC5(CCN(C)CC5)CC4)cc3)nc2n1-c1cccc(C(C)(O)C(F)F)n1` (stereo not drawn) [Compound 78] as the compound, how does the IC50 read?
Its IC50 is 32 nM.

Which IC50 does the source give for `C=C(F)Cn1c(=O)c2cnc(Nc3ccc(N4CCC5(CCN(C)CC5)CC4)cc3)nc2n1-c1cccc(C(C)(C)O)n1` [Compound 79, 2-(2-fluoroallyl)-1-(6-(2-hydroxypropan-2-yl)pyridin-2-yl)-6-((4-(9-methyl-3,9-diazaspiro[5.5]undecan-3-yl)phenyl)amino)-1H-pyrazolo[3,4-d]pyrimidin-3(2H)-one] here?
Its IC50 is 43 nM.

How did the IC50 turn out when `C=CCn1c(=O)c2cnc(Nc3ccc(N4CCC5(CCN(C)CC5)CC4)cc3)nc2n1-c1ccc(F)c(C(C)(C)O)n1` [Compound 80, 2-allyl-1-(5-fluoro-6-(2-hydroxypropan-2-yl)pyridin-2-yl)-6-((4-(9-methyl-3,9-diazaspiro[5.5]undecan-3-yl)phenyl)amino)-1H-pyrazolo[3,4-d]pyrimidin-3(2H)-one] was run?
The IC50 was 49 nM.

Which IC50 does the source give for `C=CCn1c(=O)c2cnc(Nc3ccc(N4CCC5(CCN(C)CC5)CC4)cc3)nc2n1-c1ccccc1` [Embodiment 1, 2-allyl-6-((4-(9-methyl-3,9-diazaspiro[5.5]undecan-3-yl)phenyl)amino)-1-phenyl-1H-pyrazolo[3,4-d]pyrimidin-3(2H)-one] here?
Its IC50 is 67.4 nM.

With `C=CCn1c(=O)c2cnc(Nc3ccc(N4CCC5(CCNCC5)CC4)cc3)nc2n1-c1ccccc1` [Embodiment 2, 6-((4-(3,9-diazaspiro[5.5]undecan-3-yl)phenyl)amino)-2-allyl-1-phenyl-1H-pyrazolo[3,4-d]pyrimidin-3(2H)-one] as the compound, how does the IC50 read?
Its IC50 is 43.6 nM.

For `C=CCn1c(=O)c2cnc(Nc3ccc(N4CCC5(CCN(C)CC5)CC4)cc3)nc2n1-c1ccccn1` [Embodiment 3, 2-allyl-6-((4-(9-methyl-3,9-diazaspiro[5.5]undecan-3-yl)phenyl)amino)-1-(pyridin-2-yl)-1H-pyrazolo[3,4-d]pyrimidin-3(2H)-one], which IC50 is on record?
Its IC50 is 24.6 nM.

With `C=CCn1c(=O)c2cnc(Nc3ccc(N4CCC5(CCN(C)CC5)CC4)cc3)nc2n1-c1ncccn1` [Embodiment 4, 2-allyl-6-((4-(9-methyl-3,9-diazaspiro[5.5]undecan-3-yl)phenyl)amino)-1-(pyrimidin-2-yl)-1H-pyazolo[3,4-d]pyrimidine-3(2H)-one] as the compound, how does the IC50 read?
The IC50 was 251 nM.

Which IC50 does the source give for `C=CCn1c(=O)c2cnc(Nc3ccc(N4CCC5(CCN(C)CC5)CC4)cc3)nc2n1-c1cncnc1` [Embodiment 6, 2-allyl-6-((4-(9-methyl-3,9-diazaspiro[5.5]undecan-3-yl)phenyl)amino)-1-(pyrimidin-5-yl)-1H-pyrazolo[3,4-d]pyrimidin-3(2H)-one] here?
Its IC50 is 102 nM.

`C=CCn1c(=O)c2cnc(Nc3ccc(N4CCC5(CCN(C)CC5)CC4)cc3)nc2n1-c1cccs1` [Embodiment 7, 2-allyl-6-((4-(9-methyl-3,9-diazaspiro[5.5]undecan-3-yl)phenyl)amino)-1-(thiophen-2-yl)-1H-pyrazolo[3,4-d]pyrimidin-3(2H)-one] was tested. Which IC50 did it give?
The IC50 was 82.5 nM.

`C=CCn1c(=O)c2cnc(Nc3ccc(N4CCC5(CCN(C)CC5)CC4)cc3)nc2n1-c1ccsc1` [Embodiment 8, 2-allyl-6-((4-(9-methyl-3,9-diazaspiro[5.5]undecan-3-yl)phenyl)amino)-1-(thiophen-3-yl)-1H-pyrazolo[3,4-d]pyrimidin-3(2H)-one] was tested. Which IC50 did it give?
The IC50 was 51.9 nM.

For `C=CCn1c(=O)c2cnc(Nc3ccc(N4CCC5(CCN(C)CC5)CC4)cc3)nc2n1-c1nccs1` [Embodiment 9, 2-allyl-6-((4-(9-methyl-3,9-diazaspiro[5.5]undecan-3-yl)phenyl)amino)-1-(thiazol-2-yl)-1H-pyrazolo[3,4-d]pyrimidin-3(2H)-one], which IC50 is on record?
The IC50 was 109 nM.

With `C=CCn1c(=O)c2cnc(Nc3ccc(N4CCC5(CCN(C)CC5)CC4)cc3)nc2n1-c1cccc(Cl)c1` [Embodiment 11, 2-allyl-1-(3-chlorophenyl)-6-((4-(9-methyl-3,9-diazaspiro[5.5]undecan-3-yl)phenyl)amino)-1H-pyrazolo[3,4-d]pyrimidin-3(2H)-one] as the compound, how does the IC50 read?
Its IC50 is 48.1 nM.
